ChEMBL document CHEMBL1909046, “DrugMatrix in vitro pharmacology data”
Where a SMILES comes first, the peptide text is derived from it. Bridges are numbered along the chain shown (N, C = ends). [ ]: non-standard residue; d: D form. The star is where a group is joined. Threoninol(2S,3R) = C[C@@H](O)[C@H](CO)N*

How the values were obtained:
[1] = molecular target: 5-hydroxytryptamine receptor 2B (Homo sapiens, UniProt P41595); assay type: cell membranes, CHO-K1, Membrane; conditions: cho-k1; note: in other assays of this panel Not Active means under 50% inhibition at 10 µM
[2] = molecular target: Mu-type opioid receptor (Homo sapiens, UniProt P35372); assay: DRUGMATRIX: Opiate mu (OP3, MOP) radioligand binding (ligand: [3H] Diprenorphine); assay type: cell membranes, CHO-K1, Membrane; conditions: cho-k1; Not Active = under 50% inhibition at 10 µM
[3] = molecular target: Cytochrome P450 2C9 (Homo sapiens, UniProt P11712); conditions: bti-tn-5b1-4; note: in other assays of this panel Not Active means under 50% inhibition at 10 µM
[4] = molecular target: T1, Glucocorticoid receptor (Homo sapiens, UniProt P04150); conditions: hela s3; note: in other assays of this panel Not Active means under 50% inhibition at 10 µM
T1 sequence (P04150 whole entry): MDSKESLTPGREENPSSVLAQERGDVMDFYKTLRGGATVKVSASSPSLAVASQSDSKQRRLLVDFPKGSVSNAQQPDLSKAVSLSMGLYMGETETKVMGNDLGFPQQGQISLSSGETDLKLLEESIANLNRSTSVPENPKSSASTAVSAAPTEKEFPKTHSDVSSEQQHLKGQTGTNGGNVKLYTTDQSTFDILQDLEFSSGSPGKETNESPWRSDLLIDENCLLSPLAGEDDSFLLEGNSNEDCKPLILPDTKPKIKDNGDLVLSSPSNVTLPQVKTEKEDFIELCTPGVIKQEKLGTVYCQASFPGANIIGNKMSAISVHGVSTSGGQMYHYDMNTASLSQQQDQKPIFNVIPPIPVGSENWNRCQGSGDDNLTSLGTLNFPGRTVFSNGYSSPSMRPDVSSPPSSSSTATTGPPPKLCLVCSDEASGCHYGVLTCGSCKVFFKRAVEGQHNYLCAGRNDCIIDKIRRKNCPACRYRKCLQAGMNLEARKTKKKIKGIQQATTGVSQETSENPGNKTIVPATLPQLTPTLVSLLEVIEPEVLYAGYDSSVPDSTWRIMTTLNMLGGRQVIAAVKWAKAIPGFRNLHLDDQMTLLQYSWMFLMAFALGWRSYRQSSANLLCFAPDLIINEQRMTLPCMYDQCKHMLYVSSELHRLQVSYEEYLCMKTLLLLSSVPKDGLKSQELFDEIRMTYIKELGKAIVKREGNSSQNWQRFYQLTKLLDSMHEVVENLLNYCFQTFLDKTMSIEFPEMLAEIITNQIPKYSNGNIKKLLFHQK

Sequence of Mu-type opioid receptor (P35372 whole entry): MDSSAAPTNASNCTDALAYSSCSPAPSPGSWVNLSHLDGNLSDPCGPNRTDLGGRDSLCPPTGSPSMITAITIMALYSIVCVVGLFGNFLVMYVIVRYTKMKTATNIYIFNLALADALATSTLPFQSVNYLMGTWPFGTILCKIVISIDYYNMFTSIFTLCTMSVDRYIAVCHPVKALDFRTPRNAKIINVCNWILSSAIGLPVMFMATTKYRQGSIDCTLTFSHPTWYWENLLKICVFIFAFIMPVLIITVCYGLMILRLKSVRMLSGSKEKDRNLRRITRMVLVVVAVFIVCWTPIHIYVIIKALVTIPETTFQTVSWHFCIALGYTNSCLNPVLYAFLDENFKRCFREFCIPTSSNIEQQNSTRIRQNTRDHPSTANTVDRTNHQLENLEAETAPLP
Sequence of Cytochrome P450 2C9 (P11712 whole entry): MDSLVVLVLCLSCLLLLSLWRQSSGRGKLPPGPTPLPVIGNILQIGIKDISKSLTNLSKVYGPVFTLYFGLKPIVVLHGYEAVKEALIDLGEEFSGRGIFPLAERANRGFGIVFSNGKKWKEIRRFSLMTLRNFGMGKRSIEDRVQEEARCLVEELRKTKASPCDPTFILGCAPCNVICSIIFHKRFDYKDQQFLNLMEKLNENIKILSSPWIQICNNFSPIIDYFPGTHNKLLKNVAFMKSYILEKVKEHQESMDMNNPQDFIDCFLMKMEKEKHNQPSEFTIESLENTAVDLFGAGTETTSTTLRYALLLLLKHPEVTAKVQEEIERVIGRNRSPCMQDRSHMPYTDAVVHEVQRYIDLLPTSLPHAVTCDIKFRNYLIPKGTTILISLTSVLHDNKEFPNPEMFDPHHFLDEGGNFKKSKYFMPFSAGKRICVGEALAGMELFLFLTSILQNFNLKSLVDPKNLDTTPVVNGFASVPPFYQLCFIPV
Sequence of 5-hydroxytryptamine receptor 2B (P41595 whole entry): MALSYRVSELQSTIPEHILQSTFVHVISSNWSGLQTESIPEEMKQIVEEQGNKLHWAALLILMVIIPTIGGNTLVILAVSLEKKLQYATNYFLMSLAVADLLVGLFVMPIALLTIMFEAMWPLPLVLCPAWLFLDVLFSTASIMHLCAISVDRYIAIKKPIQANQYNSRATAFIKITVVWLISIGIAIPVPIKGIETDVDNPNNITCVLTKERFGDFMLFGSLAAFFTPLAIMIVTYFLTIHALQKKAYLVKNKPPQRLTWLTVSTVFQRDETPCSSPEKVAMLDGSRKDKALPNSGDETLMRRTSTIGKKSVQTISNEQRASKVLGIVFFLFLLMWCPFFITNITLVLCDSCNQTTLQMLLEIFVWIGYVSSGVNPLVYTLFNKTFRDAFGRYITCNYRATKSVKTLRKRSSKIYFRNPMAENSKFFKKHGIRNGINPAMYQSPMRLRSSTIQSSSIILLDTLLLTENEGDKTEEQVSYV

O=C1CC[C@H](N2C(=O)c3ccccc3C2=O)C(=O)N1
Not Active: IC50 [1] | IC50 [2] | IC50 [3] | Ki [3] | IC50 [4]

C[C@@H](O)[C@H](CO)NC(=O)[C@@H]1CSSC[C@H](NC(=O)[C@H](N)Cc2ccccc2)C(=O)N[C@@H](Cc2ccccc2)C(=O)N[C@H](Cc2c[nH]c3ccccc23)C(=O)N[C@@H](CCCCN)C(=O)N[C@@H]([C@@H](C)O)C(=O)N1 (H-[dF]CF[dW]KTC-{Threoninol(2S,3R)}; disulfide 2-7)
Not Active: IC50 [1] | IC50 [2] | IC50 [3] | Ki [3] | IC50 [4]

CCCC(=O)Nc1ccc(OCC(O)CNC(C)C)c(C(C)=O)c1 (centres undefined) [ACEBUTOLOL]
Not Active: IC50 [1] | IC50 [2] | IC50 [4]

N=C(N)NC(=O)c1nc(Cl)c(N)nc1N [AMILORIDE]
Not Active: IC50 [1] | IC50 [2] | IC50 [3] | Ki [3] | IC50 [4]

CN1C(=O)COc2c(C(=O)NC3CN4CCC3CC4)cc(Cl)cc21 (centres undefined) [AZASETRON]
Not Active: IC50 [1] | IC50 [2] | IC50 [3] | Ki [3]

C[C@H]1C[C@H]2[C@@H]3CCC4=CC(=O)C=C[C@]4(C)[C@@]3(Cl)[C@@H](O)C[C@]2(C)[C@@]1(O)C(=O)CO [BECLOMETHASONE]
Not Active: IC50 [1] | IC50 [2] | IC50 [3] | Ki [3]

CCOC(=O)[C@H](CCc1ccccc1)N[C@H]1CCc2ccccc2N(CC(=O)O)C1=O [BENAZEPRIL]
Not Active: IC50 [1] | IC50 [2] | IC50 [3] | Ki [3] | IC50 [4]

Nc1c(CC(=O)O)cccc1C(=O)c1ccc(Br)cc1 [BROMFENAC]
Not Active: IC50 [1] | IC50 [2] | IC50 [3] | Ki [3]

C[C@@]12C(=O)OC(=O)[C@]1(C)[C@H]1CC[C@@H]2O1 [CANTHARIDIN]
Not Active: IC50 [1] | IC50 [3] | Ki [3] | IC50 [4]

CC1=C(C(=O)O)N2C(=O)[C@@H](NC(=O)[C@H](N)c3ccccc3)[C@H]2SC1 [CEPHALEXIN ANHYDROUS]
Not Active: IC50 [1] | IC50 [2] | IC50 [4]

O=C(N[C@H](CO)[C@H](O)c1ccc([N+](=O)[O-])cc1)C(Cl)Cl [CHLORAMPHENICOL]
Not Active: IC50 [1] | IC50 [2]

ClC(Cl)Cl [CHLOROFORM]
Not Active: IC50 [1] | IC50 [2] | IC50 [3] | Ki [3] | IC50 [4]

C=C1CC[C@H](O)C/C1=C/C=C1\CCC[C@]2(C)[C@@H]([C@H](C)CCCC(C)C)CC[C@@H]12 [CHOLECALCIFEROL]
Not Active: IC50 [1] | IC50 [2] | IC50 [3] | Ki [3] | IC50 [4]

C[N+](C)(C)CCO.[Cl-] [CHOLINE CHLORIDE]
Not Active: IC50 [1] | IC50 [2] | IC50 [3] | Ki [3]

CCOC(=O)C(C)(C)Oc1ccc(Cl)cc1 [CLOFIBRATE]
Not Active: IC50 [1] | IC50 [2] | IC50 [4]

O=c1ccc2ccccc2o1 [COUMARIN]
Not Active: Ki [1] | IC50 [2] | IC50 [3] | Ki [3]

C[C@@H]1C[C@@H]([C@H](O)CC2CC(=O)NC(=O)C2)C(=O)[C@@H](C)C1 [CYCLOHEXIMIDE]
Not Active: IC50 [1]

C/C=C/C[C@@H](C)[C@@H](O)[C@H]1C(=O)N[C@@H](CC)C(=O)N(C)CC(=O)N(C)[C@@H](CC(C)C)C(=O)N[C@@H](C(C)C)C(=O)N(C)[C@@H](CC(C)C)C(=O)N[C@@H](C)C(=O)N[C@H](C)C(=O)N(C)[C@@H](CC(C)C)C(=O)N(C)[C@@H](CC(C)C)C(=O)N(C)[C@@H](C(C)C)C(=O)N1C [CYCLOSPORINE]
Not Active: IC50 [1] | IC50 [2]

CN(C)/N=N/c1[nH]cnc1C(N)=O [DACARBAZINE]
Not Active: IC50 [1] | IC50 [2] | IC50 [4]

COc1ccc2c(c1)[C@]13CCCC[C@@H]1[C@H](C2)N(C)CC3 [DEXTROMETHORPHAN]
Not Active: IC50 [1] | IC50 [2] | IC50 [3] | Ki [3] | IC50 [4]

CC(=O)Nc1c(I)c(NC(C)=O)c(I)c(C(=O)O)c1I [DIATRIZOIC ACID]
Not Active: IC50 [1] | IC50 [2] | IC50 [3] | Ki [3] | IC50 [4]

COP(=O)(OC)OC=C(Cl)Cl [DICHLORVOS]
Not Active: IC50 [1] | IC50 [3] | Ki [3]

COc1cccc2c1C(=O)c1c(O)c3c(c(O)c1C2=O)C[C@@](O)(C(=O)CO)C[C@@H]3O[C@H]1C[C@H](N)[C@H](O)[C@H](C)O1 [DOXORUBICIN]
Not Active: IC50 [1] | IC50 [2] | IC50 [3] | Ki [3] | IC50 [4]

C[C@]12CC[C@@H]3c4ccc(O)cc4CC[C@H]3[C@@H]1CC[C@@H]2O [ESTRADIOL]
Not Active: IC50 [1] | IC50 [2] | IC50 [3] | Ki [3]

CC[C@@H](CO)NCCN[C@@H](CC)CO [ETHAMBUTOL]
Not Active: IC50 [1] | IC50 [2] | IC50 [3] | Ki [3]

Cc1ccc(S(=O)(=O)NC(=O)NN2CC3CCCC3C2)cc1 (centres undefined) [GLICLAZIDE]
Not Active: IC50 [1] | IC50 [2] | IC50 [3] | Ki [3]

NC(=O)NO [HYDROXYUREA]
Not Active: IC50 [1] | IC50 [2] | IC50 [4]

CC(C(=O)O)c1cccc(C(=O)c2ccccc2)c1 (centres undefined) [KETOPROFEN]
Not Active: IC50 [1] | IC50 [2] | IC50 [3] | Ki [3]

CC(=O)Nc1cccc(O)c1 [METACETAMOL]
Not Active: IC50 [1] | IC50 [2] | IC50 [3] | Ki [3]

Cc1ncc([N+](=O)[O-])n1CCO [METRONIDAZOLE]
Not Active: IC50 [1] | IC50 [2] | IC50 [3] | Ki [3]

COc1ccc2cc([C@H](C)C(=O)O)ccc2c1 [NAPROXEN]
Not Active: IC50 [1] | IC50 [2]

CCN[C@@H]1C[C@H](N)[C@@H](O[C@H]2OC(CN)=CC[C@H]2N)[C@H](O)[C@H]1O[C@H]1OC[C@](C)(O)[C@H](NC)[C@H]1O [NETILMICIN]
Not Active: IC50 [1] | IC50 [2] | IC50 [3] | Ki [3]

COC(=O)C1=C(C)NC(C)=C(C(=O)OCC(C)C)C1c1ccccc1[N+](=O)[O-] (centres undefined) [NISOLDIPINE]
Not Active: IC50 [1] | IC50 [2] | IC50 [4]

COc1ccc2[nH]c([S+]([O-])Cc3ncc(C)c(OC)c3C)nc2c1 (centres undefined) [OMEPRAZOLE]
Not Active: IC50 [1] | IC50 [2] | IC50 [3] | Ki [3]

CCn1cc(C(=O)O)c(=O)c2cc(F)c(N3CCN(C)CC3)cc21 [PEFLOXACIN]
Not Active: IC50 [1] | IC50 [2] | IC50 [4]

CCCCOc1ccc(OCCCN2CCOCC2)cc1 [PRAMOXINE]
Not Active: IC50 [1] | IC50 [2] | IC50 [3] | Ki [3]

CCN(CC)CCOC(=O)c1ccc(N)cc1 [PROCAINE]
Not Active: IC50 [1] | IC50 [2] | IC50 [3] | Ki [3]

Cc1cc2cc3c(C)cc(=O)oc3c(C)c2o1 [TRIOXSALEN]
Not Active: IC50 [1] | IC50 [2] | IC50 [3] | Ki [3]
